Test results reported in the supplement of paper PMC9013687.

Assays:
Danio rerio embryo [1] = details: exposure time: 4 dpf
Experimental: (§1)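 Zebrafish embryos (UFZ-OBI strain) were exposed from 2 hpf for 48 h (2 dpf) or 96 h (4 dpf) at 28 °C; spontaneous tail coiling was scored at 25 hpf. Morphological features from automated image analysis (FishInspector), heart rate and locomotor response were fitted with drc models. Quantal endpoints were dichotomised at 2.5 SD from controls and fitted with a log-logistic model; heart rate, pigmentation and STC were normalised to the replicate control mean. Betamethasone was tested as betamethasone dipropionate, diflorasone as diflorasone diacetate.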

Danio rerio embryo [2] = system: Danio rerio embryo
Experimental: as §1

Danio rerio embryo [3] = experiment: EC50 Head size_Decrease; details: exposure time: 4 dpf
Experimental: as §1

Danio rerio embryo [4] = experiment: EC50 Body length_Decrease; details: exposure time: 2 dpf
Experimental: as §1

Danio rerio embryo [5] = experiment: EC50 Bladder size_Decrease; details: exposure time: 4 dpf
Experimental: as §1

Danio rerio embryo [6] = experiment: EC10 Lack of SB; higher = less potent; details: exposure time: 4 dpf
Experimental: as §1

Danio rerio embryo [7] = experiment: EC20 Lack of SB; higher = less potent; details: exposure time: 4 dpf
Experimental: as §1

Danio rerio embryo [8] = experiment: EC20 Any effect; higher = less potent
Experimental: as §1

Danio rerio embryo [9] = experiment: EC10 Any effect; higher = less potent
Experimental: as §1

Danio rerio embryo [10] = experiment: EC20 Head size_Decrease; higher = less potent; details: exposure time: 4 dpf
Experimental: as §1

Danio rerio embryo [11] = experiment: EC10 Head size_Decrease; higher = less potent; details: exposure time: 4 dpf
Experimental: as §1

Danio rerio embryo [12] = experiment: EC20 Body length_Decrease; higher = less potent; details: exposure time: 2 dpf
Experimental: as §1

Danio rerio embryo [13] = experiment: EC10 Body length_Decrease; higher = less potent; details: exposure time: 2 dpf
Experimental: as §1

Danio rerio embryo [14] = experiment: EC10 Bladder size_Decrease; higher = less potent; details: exposure time: 4 dpf
Experimental: as §1

Danio rerio embryo [15] = experiment: EC20 Bladder size_Decrease; higher = less potent; details: exposure time: 4 dpf
Experimental: as §1

Danio rerio embryo [16] = experiment: spontaneous tail coiling frequency (coils/min/embryo); higher = more spontaneous movement; details: 25 hpf
Experimental: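 Spontaneous tail coilings of zebrafish embryos exposed from 2 hpf were recorded at 24-25 hpf in 1-min videos and detected by a KNIME workflow from grey-value variance. Betamethasone was tested as the dipropionate, diflorasone as the diacetate.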

COc1cccc2c1C(=O)c1c(O)c3c(c(O)c1C2=O)C[C@@](O)(C(C)=O)C[C@@H]3O[C@H]1C[C@H](N)[C@H](O)[C@H](C)O1 [Daunorubicin]
Details | EC10 Bladder size Decrease [µM] | EC10 Body length Decrease [µM] | EC10 Head size Decrease [µM] | EC10 Lack of SB [µM] | EC20 Bladder size Decrease [µM] | EC20 Body length Decrease [µM] | EC20 Head size Decrease [µM] | EC20 Lack of SB [µM] | EC50 Bladder size Decrease [µM] | EC50 Body length Decrease [µM] | EC50 Head size Decrease [µM] | EC50 Lack of SB [µM]
Danio rerio embryo [1] | – | – | – | – | – | – | – | – | – | – | – | 72.3
Danio rerio embryo [3] | – | – | – | – | – | – | – | – | – | – | 43.4 | –
Danio rerio embryo [4] | – | – | – | – | – | – | – | – | – | 106 | – | –
Danio rerio embryo [5] | – | – | – | – | – | – | – | – | 46.8 | – | – | –
Danio rerio embryo [6] | – | – | – | 13.3 | – | – | – | – | – | – | – | –
Danio rerio embryo [7] | – | – | – | – | – | – | – | 24.9 | – | – | – | –
Danio rerio embryo [10] | – | – | – | – | – | – | 19.7 | – | – | – | – | –
Danio rerio embryo [11] | – | – | 12.4 | – | – | – | – | – | – | – | – | –
Danio rerio embryo [12] | – | – | – | – | – | 80.4 | – | – | – | – | – | –
Danio rerio embryo [13] | – | 68.5 | – | – | – | – | – | – | – | – | – | –
Danio rerio embryo [14] | 9.82 | – | – | – | – | – | – | – | – | – | – | –
Danio rerio embryo [15] | – | – | – | – | 17.5 | – | – | – | – | – | – | –

Details | EC10 Any effect [µM] | EC20 Any effect [µM] | EC50 Any effect [µM] | spontaneous tail coiling frequency
Danio rerio embryo [2], exposure time: 2 dpf | – | – | 185 | –
Danio rerio embryo [2], exposure time: 4 dpf | – | – | 90.6 | –
Danio rerio embryo [8], exposure time: 2 dpf | – | 68.6 | – | –
Danio rerio embryo [8], exposure time: 4 dpf | – | 87.6 | – | –
Danio rerio embryo [9], exposure time: 2 dpf | 38.3 | – | – | –
Danio rerio embryo [9], exposure time: 4 dpf | 85.9 | – | – | –
Danio rerio embryo [16], 17.5 µM | – | – | – | 2.64
Danio rerio embryo [16], 23.3 µM | – | – | – | 1.8
Danio rerio embryo [16], 26.3 µM | – | – | – | 3.47
Danio rerio embryo [16], 35 µM | – | – | – | 2.25
Danio rerio embryo [16], 39.4 µM | – | – | – | 2.69
Danio rerio embryo [16], 52.5 µM | – | – | – | 2.33
Danio rerio embryo [16], 59.1 µM | – | – | – | 2.7
Danio rerio embryo [16], 78.8 µM | – | – | – | 2.14
Danio rerio embryo [16], 88.7 µM | – | – | – | 2.85
